The source of these data is US10829458B2 (Araxes Pharma LLC, priority 2015, dated 2020).

Structures are written as SMILES.

For the experiment, the target named is T1, KRAS G12C 1-169, his-tagged protein, GDP-loaded (Homo sapiens, UniProt P01116, G12C).
T1 construct: KRAS G12C 1-169, his-tagged protein, GDP-loaded
In words: Biochemical assay: covalent modification of KRAS G12C measured by mass spectrometry (RapidFire/TOF or Q-Exactive). The following applies: covalent binding to KRAS G12C. A digest of the protocol: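 GDP-loaded his-tagged KRAS G12C 1-169 at 2 μM in 20 mM Hepes, 150 mM NaCl, 1 mM MgCl2 incubated at room temperature with compound (10, 30 or 100 μM final, 2% DMSO) for 30 min, 2 h or 24 h, then quenched with formic acid. Intact-protein LC-MS (RapidFire/TOF or Q-Exactive) with deconvolution quantified modified versus unmodified protein.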

`C=CC(=O)N1[C@H](C)CN(c2ncnc3c(F)c(-c4c(O)cccc4F)c(Cl)cc23)C[C@@H]1C` (atropisomer, axis not shown) [III-6]: for the setting “compounds of structure (III)”, the Binding % entry is on record as “+++ (+++ indicates binding activity greater than 90%)”. `C=CC(=O)N1CCN(c2nc(OC3CCN(C)CC3)nc3c(F)c(-c4c(C)ccc5[nH]ncc45)c(Cl)cc23)CC1` [Example I-59, 1-(4-(6-chloro-8-fluoro-7-(5-methyl-1H-indazol-4-yl)-2-(1-methyl-piperidin-4-yloxy)quinazolin-4-yl)piperazin-1-yl)prop-2-en-1-one]: the Binding % entry (compounds of structure (I)) is “+++ (+++ indicates binding activity greater than 90%)”.

As for `C=CC(=O)N1CCN(c2nc(OCCN3CCC(F)(F)C3)nc3c(F)c(-c4c(O)cccc4F)c(Cl)cc23)CC1` (atropisomer, axis not shown) [Example I-97, (S)-1-(4-(6-chloro-2-(2-(3,3-difluoro-pyrrolidin-1-yl)ethoxy)-8-fluoro-7-(2-fluoro-6-hydroxyphenyl)quinazolin-4-yl)piperazin-1-yl)prop-2-en-1-one], the Binding % entry (compounds of structure (I)) was “+++ (+++ indicates binding activity greater than 90%)”. Still for that read-out and setting: the same measure for `C=CC(=O)N1CCN(c2nc(NC3CN(C(C)C)C3)nc3c(F)c(-c4c(O)cccc4F)c(Cl)cc23)CC1` [Example I-174, 1-(4-(6-chloro-8-fluoro-7-(2-fluoro-6-hydroxyphenyl)-2-((1-isopropyl-azetidin-3-yl)amino)quinazolin-4-yl)piperazin-1-yl) prop-2-en-1-one]: “+ (+ indicates binding activity up to 50%)”.

Turning to `C=CC(=O)N1CCN(c2nc(Oc3cnn(C)c3)nc3c(F)c(-c4c(O)cccc4F)c(Cl)cc23)CC1` [Example I-25, 1-(4-(6-chloro-8-fluoro-7-(2-fluoro-6-hydroxyphenyl)-2-(1-methyl-1H-pyrazol-4-yloxy)quinazolin-4-yl)piperazin-1-yl)prop-2-en-1-one], the Binding % entry (compounds of structure (I)) is listed as “+++ (+++ indicates binding activity greater than 90%)”. As to `C=CC(=O)N1CCN(c2c(C#N)c(N3CC(N(C)C)C3)nc3c(F)c(-c4c(O)cccc4F)c(Cl)cc23)CC1` [Example I-197, 4-(4-acryloyl-piperazin-1-yl)-6-chloro-2-(3-(dimethyl-amino)azetidin-1-yl)-8-fluoro-7-(2-fluoro-6-hydroxyphenyl) quinoline-3-carbonitrile], the Binding % result (compounds of structure (I)) is “++ (++ indicates binding activity from 50 to 90%)”. As to `O=C(/C=C/CN1CCC1)N1CCN(c2ncnc3c(F)c(-c4c(O)cccc4F)c(Cl)cc23)CC1` [II-2, (E)-4-(azetidin-1-yl)-1-(4-(6-chloro-8-fluoro-7-(2-fluoro-6-hydroxyphenyl)quinazolin-4-yl)piperazin-1-yl)but-2-en-1-one], the Binding % entry (compounds of structure (II)) is reported as “+++ (+++ indicates binding activity of 75% or greater)”. Consider `C=CC(=O)N1CCN(c2nc(OCC3OCCO3)nc3c(F)c(-c4c(O)cccc4F)c(Cl)cc23)CC1` [Example I-163, 1-(4-(2-((1,3-dioxolan-2-yl)methoxy)-6-chloro-8-fluoro-7-(2-fluoro-6-hydroxyphenyl)quinazolin-4-yl)piperazin-1-yl) prop-2-en-1-one], for which the Binding % result (compounds of structure (I)) was “+++ (+++ indicates binding activity greater than 90%)”.

In the case of `C=CC(=O)N1CCN(c2nc(OC3CN(C(C)C)C3)nc3c(F)c(-c4c(O)cccc4F)c(Cl)cc23)CC1` [Example I-178, 1-(4-(6-chloro-8-fluoro-7-(2-fluoro-6-hydroxyphenyl)-2-((1-isopropyl-azetidin-3-yl)oxy)quinazolin-4-yl)piperazin-1-yl)prop-2-en-1-one], the Binding % entry (compounds of structure (I)) is recorded as “++ (++ indicates binding activity from 50 to 90%)”.

As to `C=CC(=O)N1CCN(c2nc(NC3CN(c4ncccn4)C3)nc3c(F)c(-c4c(C)ccc5[nH]ncc45)c(Cl)cc23)CC1` [Example I-187, 1-(4-(6-chloro-8-fluoro-7-(5-methyl-1H-indazol-4-yl)-2-((1-(pyrimidin-2-yl)azetidin-3-yl)amino)quinazolin-4-yl)piperazin-1-yl) prop-2-en-1-one], the Binding % entry (compounds of structure (I)) was “+ (+ indicates binding activity up to 50%)”. `C=CC(=O)N1CCCN(c2ncnc3c(F)c(-c4c(O)cccc4F)c(Cl)cc23)CC1` [II-7, 1-(4-(6-chloro-8-fluoro-7-(2-fluoro-6-hydroxyphenyl)quinazolin-4-yl)-1,4-diazepan-1-yl)prop-2-en-1-one]: the Binding % entry (compounds of structure (II)) is on record as “+ (+ indicates binding activity up to 50%)”. On to `C=CC(=O)N1CCN(c2nc(OC3CCN(C4CC4)CC3)nc3c(F)c(-c4c(C)ccc5[nH]ncc45)c(Cl)cc23)CC1` [Example I-194], for which the Binding % entry (compounds of structure (I)) is “+ (+ indicates binding activity up to 50%)”. As to `C=CC(=O)N1CCN(c2ncnc3c(F)c(-c4c(O)cccc4F)c(Cl)cc23)[C@@H](CO)C1` [III-39, 1-((3R)-4-(6-chloro-8-fluoro-7-(2-fluoro-6-hydroxy-phenyl)quinazolin-4-yl)-3-(hydroxy-methyl)piperazin-1-yl)prop-2-en-1-one], where the note is “compounds of structure (III)”, the Binding % result is recorded as “+ (+ indicates binding activity up to 50%)”. In the case of `C=CC(=O)N1CCN(c2nc(C#N)nc3c(F)c(-c4c(C)ccc5[nH]ncc45)c(Cl)cc23)CC1` [Example I-11, 4-(4-acryloyl-piperazin-1-yl)-6-chloro-8-fluoro-7-(5-methyl-1H-indazol-4-yl)quinazoline-2-carbonitrile], where the note is “compounds of structure (I)”, the Binding % result is listed as “+++ (+++ indicates binding activity greater than 90%)”. With `C=CC(=O)N1CCN(c2nc(NCCc3ncccn3)nc3c(F)c(-c4c(O)cccc4F)c(Cl)cc23)CC1` [Example I-171, 1-(4-(6-chloro-8-fluoro-7-(2-fluoro-6-hydroxyphenyl)-2-((2-(pyrimidin-2-yl)ethyl)amino)quinazolin-4-yl)piperazin-1-yl) prop-2-en-1-one], the Binding % result (compounds of structure (I)) is reported as “++ (++ indicates binding activity from 50 to 90%)”. As to `C=CC(=O)N1CCN(c2nc(OCCN3CCOCC3)nc3c(F)c(-c4ccccc4C(F)(F)F)c(Cl)cc23)CC1` [Example I-48, 1-(4-(6-chloro-8-fluoro-2-(2-morpholino-ethoxy)-7-(2-(trifluoromethyl)phenyl)quinazolin-4-yl)piperazin-1-yl)prop-2-en-1-one], the Binding % result (compounds of structure (I)) is on record as “+++ (+++ indicates binding activity greater than 90%)”.

Regarding `C=CC(=O)N1CCN(c2nc(NC3CCN(C4CC4)CC3)nc3c(F)c(-c4c(O)cccc4F)c(Cl)cc23)CC1` (atropisomer, axis not shown) [Example I-79, (R)-1-(4-(6-chloro-2-(1-cyclopropyl-piperidin-4-ylamino)-8-fluoro-7-(2-fluoro-6-hydroxyphenyl)quinazolin-4-yl)piperazin-1-yl) prop-2-en-1-one], the Binding % result (compounds of structure (I)) is “+ (+ indicates binding activity up to 50%)”. On the same count and under the same terms, for `C=CC(=O)N1CCN(c2nc(OC3CCN(C4CC4)CC3)nc3c(F)c(-c4c(C)ccc5[nH]ncc45)c(Cl)cc23)CC1` [Example I-138] the value was “+++ (+++ indicates binding activity greater than 90%)”.

Turning to `C=CC(=O)N1CCN(c2ncnc3c(F)c(-c4c(O)cccc4F)c(Cl)cc23)[C@H](C)C1` [III-12, 1-((3R)-4-(6-chloro-8-fluoro-7-(2-fluoro-6-hydroxy-phenyl)quinazolin-4-yl)-3-methyl-piperazin-1-yl)prop-2-en-1-one], for the setting “compounds of structure (III)”, the Binding % result is given as “+ (+ indicates binding activity up to 50%)”.
